Experimental data as given in publication PMC7180572, “5-Alkylamino-N-phenylpyrazine-2-carboxamides: Design, Preparation, and Antimycobacterial Evaluation” (Molecules, 2020).
pIC50: −log10 of the molar value. In brackets after ≈: the same amount, converted by molar mass. Several values for one entry are separate records, joined by “and”; a condition that tells them apart may be missing. Equal values may be shown once. Read-outs that look alike come from different tables or passages of the source.

Experiments:
[1] = system: Absidia corymbifera CCM 8077 (Lichtheimia corymbifera); experiment: Antifungal microdilution broth method (EUCAST); type: cell-based; conditions: read-out: MIC AC
[2] = system: Acinetobacter baumanii ATCC 19606, DSM 30007; experiment: Antibacterial microdilution broth method (EUCAST); type: cell-based; conditions: Acinetobacter baumannii
[3] = system: Escherichia coli ATCC 25922, CCM 3954; experiment: Antibacterial microdilution broth method (EUCAST); type: cell-based; conditions: read-out: MIC EC
[4] = system: Enterococcus faecalis ATCC 29212, CCM 4224; experiment: Antibacterial microdilution broth method (EUCAST); type: cell-based; conditions: read-out: MIC EF
[5] = system: Trichophyton interdigitale ATCC 9533, CCM 8377; experiment: Antifungal microdilution broth method (EUCAST); type: cell-based; conditions: read-out: MIC TI
[6] = system: Klebsiella pneumoniae ATCC 10031, CCM 4415; experiment: Antibacterial microdilution broth method (EUCAST)
[7] = system: Mycobacterium aurum DSM 43999 (ATCC 23366); experiment: Microdilution broth, modified Microplate Alamar Blue Assay, whole cell growth inhibition; type: cell-based; conditions: Mycolicibacterium aurum, read-out: MIC Mycobacterium aurum
[8] = system: Mycobacterium tuberculosis H37Ra ITM-M006710 (ATCC 9431); experiment: as above; type: cell-based; conditions: Mycobacterium tuberculosis, read-out: MIC Mtb H37Ra
[9] = system: Pseudomonas aeruginosa ATCC 27853, CCM 3955; experiment: Antibacterial microdilution broth method (EUCAST); type: cell-based; conditions: read-out: MIC PA
[10] = system: Candida albicans ATCC 24433, CCM 8320; experiment: Antifungal microdilution broth method (EUCAST); type: cell-based
[11] = system: Candida tropicalis ATCC 750, CCM 8264; experiment: Antifungal microdilution broth method (EUCAST); type: cell-based; conditions: read-out: MIC CT
[12] = system: Candida parapsilosis ATCC 22019, CCM 8260; experiment: Antifungal microdilution broth method (EUCAST); type: cell-based; conditions: Lodderomyces parapsilosis
[13] = system: Candida krusei ATCC 6258, CCM 8271; experiment: Antifungal microdilution broth method (EUCAST); type: cell-based; conditions: Pichia kudriavzevii
[14] = system: HepG2 cells; experiment: HepG2 cytotoxicity, CellTiter 96 (MTS) assay; type: cell-based, human; conditions: for pIC50: Homo sapiens, HepG2, 24 h, read-out: HepG2 IC50; for SI, selectivity index: IC50 (HepG2)/MIC against Mtb H37Ra (in µM)
[15] = system: Aspergillus flavus CCM 8363; experiment: Antifungal microdilution broth method (EUCAST); type: cell-based; conditions: read-out: MIC AFla
[16] = system: Staphylococcus aureus spp.aureus ATCC 29213, CCM 4223; experiment: Antibacterial microdilution broth method (EUCAST); type: cell-based; conditions: read-out: MIC SA
[17] = system: Staphylococcus epidermidis ATCC 12228, CCM 4418; experiment: Antibacterial microdilution broth method (EUCAST); type: cell-based; conditions: read-out: MIC SE
[18] = system: Staphylococcus aureus methicillin resistant ATCC 43300, CCM 4750; experiment: microbe, parasite or virus in culture; type: cell-based; conditions: ATCC 43300 / CCM 4750 / MRSA, read-out: MIC MRSA
[19] = system: Aspergillus fumigatus ATCC 204305; experiment: Antifungal microdilution broth method (EUCAST); type: cell-based; conditions: read-out: MIC AF
[20] = system: Mycobacterium smegmatis DSM 43465 (ATCC 607); experiment: Microdilution broth, modified Microplate Alamar Blue Assay, whole cell growth inhibition; type: cell-based; conditions: Mycolicibacterium smegmatis, read-out: MIC Mycobacterium smegmatis
[21] = in vitro, Middlebrook 7H9 broth, resazurin

CCCCCCCCNc1cnc(C(=O)Nc2ccc(C)cc2)cn1 [Compound 4f, 5-(octylamino)-N-(p-tolyl)pyrazine-2-carboxamide]
MIC ([1]; CCM8077, 24 h): > 125 µM
MIC ([1]; CCM8077, 48 h): > 125 µM
MIC ([2]; 24h): > 125 µM
MIC ([2]; 48h): > 125 µM
MIC ([3]; 24 h): > 125 µM
MIC ([3]; 48 h): > 125 µM
MIC ([4]; 24 h): > 125 µM
MIC ([4]; 48 h): > 125 µM
MIC ([5]; 72 h): > 125 µM
MIC ([5]; 120 h): > 125 µM
MIC KP ([6]; 24h): > 125 µM
MIC KP ([6]; 48h): > 125 µM
MIC [7]: ≥ 250 µg/mL
MIC [8, 21]: ≥ 250 µg/mL
MIC ([9]; 72 h): > 125 µM
MIC ([9]; 120 h): > 125 µM
MIC ([10]; 24 h, read-out: MIC CA): > 125 µM
MIC ([10]; 48 h, read-out: MIC CA): > 125 µM
MIC ([11]; 24 h): > 125 µM
MIC ([11]; 48 h): > 125 µM
MIC ([12]; 24 h, read-out: MIC CP): > 125 µM
MIC ([12]; 48 h, read-out: MIC CP): > 125 µM
MIC ([13]; 24 h, read-out: MIC CK): > 125 µM
MIC ([13]; 48 h, read-out: MIC CK): > 125 µM
pIC50 [14]: < 4.60
MIC ([15]; CCM8363, 24 h): > 125 µM
MIC ([15]; CCM8363, 48 h): > 125 µM
MIC ([16]; 24 h): > 125 µM
MIC ([16]; 48 h): > 125 µM
MIC ([17]; 24 h): > 125 µM
MIC ([17]; 48 h): > 125 µM
MIC ([18]; 24 h): > 125 µM
MIC ([18]; 48 h): > 125 µM
MIC ([19]; ATCC204305, 24 h): > 125 µM
MIC ([19]; ATCC204305, 48 h): > 125 µM
MIC [20]: ≥ 250 µg/mL
melting point: 155 to 156 °C

CCCNc1cnc(C(=O)Nc2cccc(O)c2)cn1 [Compound 2a, N-(3-hydroxyphenyl)-5-(propylamino)pyrazine-2-carboxamide]
MIC ([1]; CCM8077, 24 h): > 125 µM
MIC ([1]; CCM8077, 48 h): > 125 µM
MIC ([2]; 24h): > 125 µM
MIC ([2]; 48h): > 125 µM
MIC ([3]; 24 h): > 125 µM
MIC ([3]; 48 h): > 125 µM
MIC ([4]; 24 h): > 125 µM
MIC ([4]; 48 h): > 125 µM
MIC ([5]; 72 h): > 125 µM
MIC ([5]; 120 h): > 125 µM
MIC KP ([6]; 24h): > 125 µM
MIC KP ([6]; 48h): > 125 µM
MIC [7]: ≥ 500 µg/mL
MIC [8, 21]: 7.81 µg/mL
MIC ([9]; 72 h): > 125 µM
MIC ([9]; 120 h): > 125 µM
MIC ([10]; 24 h, read-out: MIC CA): > 125 µM
MIC ([10]; 48 h, read-out: MIC CA): > 125 µM
MIC ([10]; read-out: MIC CA (Candida albicans)): > 125 µM
MIC ([11]; 24 h): > 125 µM
MIC ([11]; 48 h): > 125 µM
MIC ([12]; 24 h, read-out: MIC CP): > 125 µM
MIC ([12]; 48 h, read-out: MIC CP): > 125 µM
MIC ([12]; read-out: MIC CP (Candida parapsilosis)): > 125 µM
MIC ([13]; 24 h, read-out: MIC CK): 62.5 µM (≈ 17 µg/mL)
MIC ([13]; 48 h, read-out: MIC CK): 62.5 µM (≈ 17 µg/mL)
MIC ([13]; read-out: MIC CK (Candida krusei)): 62.5 µM (≈ 17 µg/mL)
pIC50 [14]: < 4.00
SI, selectivity index [14]: >3.5
MIC ([15]; CCM8363, 24 h): > 125 µM
MIC ([15]; CCM8363, 48 h): > 125 µM
MIC ([16]; 24 h): > 125 µM
MIC ([16]; 48 h): > 125 µM
MIC ([17]; 24 h): > 125 µM
MIC ([17]; 48 h): > 125 µM
MIC ([18]; 24 h): > 125 µM
MIC ([18]; 48 h): > 125 µM
MIC ([19]; ATCC204305, 24 h): > 125 µM
MIC ([19]; ATCC204305, 48 h): > 125 µM
MIC [20]: ≥ 500 µg/mL
melting point: 194 to 195 °C

CCCNc1cnc(C(=O)Nc2ccc(CC)cc2)cn1 [Compound 5a, N-(4-ethylphenyl)-5-(propylamino)pyrazine-2-carboxamide]
MIC ([1]; CCM8077, 24 h): > 125 µM
MIC ([1]; CCM8077, 48 h): > 125 µM
MIC ([2]; 24h): > 125 µM
MIC ([2]; 48h): > 125 µM
MIC ([3]; 24 h): > 125 µM
MIC ([3]; 48 h): > 125 µM
MIC ([4]; 24 h): > 125 µM
MIC ([4]; 48 h): > 125 µM
MIC ([5]; 72 h): > 125 µM
MIC ([5]; 120 h): > 125 µM
MIC KP ([6]; 24h): > 125 µM
MIC KP ([6]; 48h): > 125 µM
MIC [7]: ≥ 500 µg/mL
MIC ([8]; MIC converted to µM): 27.5 µM
MIC [8, 21]: 7.81 µg/mL
MIC ([9]; 72 h): > 125 µM
MIC ([9]; 120 h): > 125 µM
MIC ([10]; 24 h, read-out: MIC CA): > 125 µM
MIC ([10]; 48 h, read-out: MIC CA): > 125 µM
MIC ([11]; 24 h): > 125 µM
MIC ([11]; 48 h): > 125 µM
MIC ([12]; 24 h, read-out: MIC CP): > 125 µM
MIC ([12]; 48 h, read-out: MIC CP): > 125 µM
MIC ([13]; 24 h, read-out: MIC CK): > 125 µM
MIC ([13]; 48 h, read-out: MIC CK): > 125 µM
pIC50 [14]: 3.31
SI, selectivity index [14]: 18 and 18.01
MIC ([15]; CCM8363, 24 h): > 125 µM
MIC ([15]; CCM8363, 48 h): > 125 µM
MIC ([16]; 24 h): > 125 µM
MIC ([16]; 48 h): > 125 µM
MIC ([17]; 24 h): > 125 µM
MIC ([17]; 48 h): > 125 µM
MIC ([18]; 24 h): > 125 µM
MIC ([18]; 48 h): > 125 µM
MIC ([19]; ATCC204305, 24 h): > 125 µM
MIC ([19]; ATCC204305, 48 h): > 125 µM
MIC [20]: 7.81 µg/mL (≈ 27.5 µM)
melting point: 141.8 to 142.8 °C

CCCCCCNc1cnc(C(=O)Nc2cccc(C(F)(F)F)c2)cn1 [Compound 1d, 5-(Hexylamino)-N-(3-(trifluoromethyl)phenyl)pyrazine-2-carboxamide]
MIC ([1]; CCM8077, 24 h): > 500 µM
MIC ([1]; CCM8077, 48 h): > 500 µM
MIC ([2]; 24h): > 500 µM
MIC ([2]; 48h): > 500 µM
MIC ([3]; 24 h): > 500 µM
MIC ([3]; 48 h): > 500 µM
MIC ([4]; 24 h): > 500 µM
MIC ([4]; 48 h): > 500 µM
MIC ([5]; 72 h): > 500 µM
MIC ([5]; 120 h): > 500 µM
MIC KP ([6]; 24h): > 500 µM
MIC KP ([6]; 48h): > 500 µM
MIC [7]: 25 µg/mL (≈ 68.2 µM)
MIC [8, 21]: ≥ 500 µg/mL
MIC ([9]; 72 h): > 500 µM
MIC ([9]; 120 h): > 500 µM
MIC ([10]; 24 h, read-out: MIC CA): > 500 µM
MIC ([10]; 48 h, read-out: MIC CA): > 500 µM
MIC ([11]; 24 h): > 500 µM
MIC ([11]; 48 h): > 500 µM
MIC ([12]; 24 h, read-out: MIC CP): > 500 µM
MIC ([12]; 48 h, read-out: MIC CP): > 500 µM
MIC ([13]; 24 h, read-out: MIC CK): > 500 µM
MIC ([13]; 48 h, read-out: MIC CK): > 500 µM
pIC50 [14]: < 4.60
MIC ([15]; CCM8363, 24 h): > 500 µM
MIC ([15]; CCM8363, 48 h): > 500 µM
MIC ([16]; 24 h): > 500 µM
MIC ([16]; 48 h): > 500 µM
MIC ([17]; 24 h): > 500 µM
MIC ([17]; 48 h): > 500 µM
MIC ([18]; 24 h): > 500 µM
MIC ([18]; 48 h): > 500 µM
MIC ([19]; ATCC204305, 24 h): > 500 µM
MIC ([19]; ATCC204305, 48 h): > 500 µM
MIC [20]: ≥ 500 µg/mL
melting point: 148 to 149 °C
